# Values of other authors, collected in patent EP2251003A2, “Ophthalmic Compositions for the Re-epithelialization, Healing and Disinfection of the Eye Tissues” (priority 2009, dated 2010).
# Like-named read-outs stand apart in the source and are kept apart here.
# What was measured:
# [1] = 1.5 g/kg/day administered for 90 days
# [2] = 1 g/kg/day, rat
# [3] = in vivo
# cornea of the rabbit = settings: administered to the cornea of the rabbit
# [4] = mouse
# [5] = rat, more recent studies
# [6] = 50 mg/kg/day administered orally to rats, subchronic
# eye of the rabbit [7] = settings: topical
# [8] = topical use, reported in the literature
# eye of the rabbit [9] = settings: 5% ophthalmic solution, topical application
# fibroblast = settings: in vitro
# [10] = eyedrops containing dexpanthenol
compound,measurement,setting,value
"CS(C)(=O)=O [MSM, Methylsulphonylmethane]",toxic effect,[1],do not have any toxic effect
same,"toxic effects on fertility, gestation and neonatal development",[2],absence of toxic effects
same,absorption and urinary elimination,[3],rapid absorption and rapid urinary elimination
same,intraocular absorption of other substances,cornea of the rabbit,promotes intraocular absorption of disodium edetate and other substances
N=C(N)c1ccc(OCCCCCCOc2ccc(C(=N)N)cc2)cc1 [hexamidine diisethionate],intraperit. LD50,[4]; intraperitoneal,1060 mg/kg
same,oral LD Lo,[4]; oral,100 mg/kg
same,oral LD50,"[4]; oral, Toxicology and Applied Pharmacology 1975",280 mg/kg
same,"oral acute toxicity, expressed as LD50","[4]; oral, more recent studies",710 to 2500 mg/kg
same,"oral acute toxicity, expressed as LD50",[5],750 mg/kg
same,toxic effect,[6],did not show any toxic effect
same,eye irritation,eye of the rabbit [7]; aqueous solutions containing 0.10-0.11%,"slight, transient irritation"
same,eye irritation,eye of the rabbit [7]; concentration of 0.050%,no reaction
same,cases of sensitisation,[8],nine cases out of millions of subjects
CC(C)(CO)[C@@H](O)C(=O)NCCCO [dexpanthenol],extent and time of re-epithelialisation of the corneal endothelium,eye of the rabbit [9],significantly stimulated
same,fibroblast proliferation,fibroblast,activation of fibroblast proliferation
same,ocular tolerability,[10],excellent
